Entries after “also recorded” stand apart in the source; their conditions may differ.
Legend:
[1] = test system: microorganisms (e.g., bacteria, yeasts, fungi); experiment: Targeting peptide binding to target microorganisms (Table 3); conditions: preferably 1x PBS; for Target(s) (microorganisms bound by the targeting peptide): peptide binding in aqueous buffers varied by peptide solubility
microorganisms = experiment: Peptides having multiple activities (targeting/binding, antimicrobial, growth or phenotype altering)
Description: In certain embodiments, peptides described herein can have multiple activities. Thus for example, a peptide can have both binding/targeting activity and antimicrobial activity. Such peptides can be used, e.g., in a chimeric construct, for any or all of these properties. Thus, for example, a peptide designated “B” in Table 8 can be used as a targeting peptide. If it is also designated G or M it can also be used for antimicrobial activity.

S. pneumoniae = experiment: Kill or inhibit growth/proliferation; morphology, biofilm and growth disruption (Tables 5, 6); assay type: cell-based, Streptococcus pneumoniae; parameters: key: A: Peptide aggregates; B: Less hyphal formation; Clumps; Diffuse clumps and small polyps; F: Diffuse growth; H: Thin; I: Growth inhibition; Microcolony formation; Rippled; Small polyps; Thick; W: Halo formation on top, microlonies on bottom; note: test concentration or dose not given here
MRSA = experiment: as above; assay type: cell-based, Methicillin-resistant Staphylococcus aureus; parameters: key: A: Peptide aggregates; B: Less hyphal formation; Clumps; Diffuse clumps and small polyps; F: Diffuse growth; H: Thin; I: Growth inhibition; Microcolony formation; Rippled; Small polyps; Thick; W: Halo formation on top, microlonies on bottom
S. epidermidis = experiment: as above; assay type: cell-based, Staphylococcus epidermidis; parameters: key: A: Peptide aggregates; B: Less hyphal formation; Clumps; Diffuse clumps and small polyps; F: Diffuse growth; H: Thin; I: Growth inhibition; Microcolony formation; Rippled; Small polyps; Thick; W: Halo formation on top, microlonies on bottom
[2] = microorganism(s) the targeting peptide binds, peptide binding conducted in aqueous buffers varied by peptide solubility
[3] = microorganism the targeting peptide binds, binding in aqueous buffers varied by peptide solubility
[4] = microorganism(s) the targeting peptide binds, binding in aqueous buffers depending on peptide solubility
Throughout, for Organism, effect (morphology, biofilm and growth disruption): test concentration or dose not given here.
Throughout, for Organism, effect: test concentration or dose not given here.

Substance | Activities (microorganisms) | Organism, effect (MRSA) | Organism, effect (S. epidermidis) | Target(s) [1, 4] | also measured
MQIFYIKTKIFLSFFLFLLIFSQCFYKIEE [PF-442] | G B | MRSA (M) | – | – | Target(s) [1, 2]: S. epidermidis; also recorded: E. coli; also recorded: C. albicans; also recorded: S. pneumoniae; also recorded: E. faecalis; Organism, effect (S. pneumoniae): S. pneumoniae (C)
PF-009: peptide having multiple activities (chain 1 SKKYNHILNQENR; chain 2 SKKYNHILNQENR; Peptide with targeting and/or antimicrobial activity) | G B | – | S. epidermidis (S) | – | Target(s) [1, 3]: M. luteus; also recorded: P. mirabilis; also recorded: C. albicans
PF-024: peptide having multiple activities (chain 1 DLRKAK; chain 2 DLRKAK; Peptide with targeting and/or antimicrobial activity) | G B | MRSA (M) | S. epidermidis (D) | – | Target(s) [1, 3]: M. luteus and C. albicans and MRSA and E. faecalis and C. jeikeium
PF-027: peptide having multiple activities (chain 1 HNARKYLEFISQKIDGDKLTKEDSL; chain 2 HNARKYLEFISQKIDGDKLTKEDSL; Peptide with targeting and/or antimicrobial activity) | G B | MRSA (M) | S. epidermidis (D) | – | Target(s) [1, 3]: M. luteus and MRSA and E. faecalis and C. jejuni
PF-034: peptide having multiple activities (chain 1 EPKKKHFPKMESASSEP; chain 2 EPKKKHFPKMESASSEP; Peptide with targeting and/or antimicrobial activity) | G B | – | S. epidermidis (A) | – | Target(s) [1, 3]: M. luteus
PF-041: peptide having multiple activities (chain 1 ELLVILPGFI; chain 2 ELLVILPGFI; Peptide with targeting and/or antimicrobial activity) | G B | MRSA (M) | S. epidermidis (R) | – | Target(s) [1, 3]: MRSA
PF-064: peptide having multiple activities (chain 1 DYYGKE; chain 2 DYYGKE; Peptide with targeting and/or antimicrobial activity) | G B | MRSA (M) | S. epidermidis (D) | – | Target(s) [1, 3]: E. coli
PF-074: peptide having multiple activities (RDIHPIYFMTKD; Peptide with targeting and/or antimicrobial activity) | G B | MRSA (M) | S. epidermidis (D) | S. epidermidis and M. luteus and MRSA | –
PF-123: peptide having multiple activities (TTRPQVAEDRQLDDALKETFPASDPISP; Peptide with targeting and/or antimicrobial activity) | G B | – | S. epidermidis (M) | M. luteus; also recorded: E. coli | –
PF-157: peptide having multiple activities (HTAVVWLAGVSGCVALSHCEPA; Peptide with targeting and/or antimicrobial activity) | G B | – | S. epidermidis (M) | – | –
PF-180: peptide having multiple activities (SGLGDLGFSSEAK; Peptide with targeting and/or antimicrobial activity) | G B | – | S. epidermidis (C) | S. epidermidis and M. luteus and P. aeruginosa and C. albicans and MRSA and E. faecalis and C. jejuni and M. smegmatis | –
PF-192: peptide having multiple activities (VEEDEAPPPHY; Peptide with targeting and/or antimicrobial activity) | G B | – | S. epidermidis (D) | S. epidermidis; also recorded: M. luteus; also recorded: P. aeruginosa; also recorded: C. albicans; also recorded: E. faecalis; also recorded: C. jeikeium | –
PF-233: peptide having multiple activities (DANAMARTTIAIVYILALIALTISYSL; Peptide with targeting and/or antimicrobial activity) | G B | – | S. epidermidis (C) | S. epidermidis; also recorded: M. luteus; also recorded: P. aeruginosa; also recorded: A. baumannii | –
PF-273: peptide having multiple activities (LVGALLIFVALIYMVLKGNADKN; Peptide with targeting and/or antimicrobial activity) | G B | – | S. epidermidis (C) | S. epidermidis; also recorded: M. luteus; also recorded: P. aeruginosa; also recorded: A. baumannii | –
PF-290 (MVHDMTNGTLIIVKH; Peptide with targeting and/or antimicrobial activity) | – | – | S. epidermidis (C) | – | –
PF-293 (YDPLK; Peptide with targeting and/or antimicrobial activity) | – | – | S. epidermidis (C) | – | –
PF-294: peptide having multiple activities (DFLVNFLWFKGELNWGKKRYK; Peptide with targeting and/or antimicrobial activity) | G B | – | S. epidermidis (C) | S. epidermidis; also recorded: C. difficile | –
PF-310 (GVALIGTILVPLLSGLFG; Peptide with targeting and/or antimicrobial activity) | – | – | S. epidermidis (C) | – | –
PF-313: peptide having multiple activities (YITSHKNARAIIKKFERDEILEEVITHYLNRK; Peptide with targeting and/or antimicrobial activity) | G B | – | S. epidermidis (C) | S. epidermidis; also recorded: C. difficile | –
PF-397: peptide having multiple activities (VEDLMEDLNA; Peptide with targeting and/or antimicrobial activity) | G B | – | S. epidermidis (C) | – | Target(s) [1, 2]: S. epidermidis and MRSA and S. pneumoniae and E. faecalis and C. jejuni
PF-539: peptide having multiple activities (chain 1 SIILTKKKRRKIPLSIDSQIYKYTFKQ; chain 2 SIILTKKKRRKIPLSIDSQIYKYTFKQ; Peptide with targeting and/or antimicrobial activity) | G B | MRSA (H) | – | – | Organism, effect (S. pneumoniae): S. pneumoniae (A)
PF-642: peptide having multiple activities (chain 1 FTTPMIGIPAGLLGGSYYLKRREEKGK; chain 2 FTTPMIGIPAGLLGGSYYLKRREEKGK; Peptide with targeting and/or antimicrobial activity) | G B | MRSA (M) | – | – | Target(s) (microorganisms bound by the targeting peptide) [1]: M. luteus and MRSA and C. jeikeium
PF-658 (chain 1 PTTPPPTTPPEIPTGGTVIST; chain 2 PTTPPPTTPPEIPTGGTVIST; Peptide with targeting and/or antimicrobial activity) | – | – | – | – | Target(s) (microorganisms bound by the targeting peptide) [1]: Mycobacteria spp; Organism, effect (morphology, biofilm and growth disruption) (S. pneumoniae): S. pneumoniae (H); Organism, effect (morphology, biofilm and growth disruption) (MRSA): MRSA (R)
PF-694 (chain 1 DLIRPLYSMSAPSVA; chain 2 DLIRPLYSMSAPSVA; Peptide with targeting and/or antimicrobial activity) | – | – | – | – | Target(s) (microorganisms bound by the targeting peptide) [1]: Mycobacteria spp; Organism, effect (morphology, biofilm and growth disruption) (S. pneumoniae): S. pneumoniae (A); Organism, effect (morphology, biofilm and growth disruption) (MRSA): MRSA (R)
PF-738: peptide having multiple activities (KSGATSAASGAKSGASS; Peptide with targeting and/or antimicrobial activity) | G B | – | – | – | Target(s) (microorganisms bound by the targeting peptide) [1]: S. epidermidis; also recorded: C. albicans; also recorded: C. jeikeium; Organism, effect (morphology, biofilm and growth disruption) (MRSA): MRSA (M)
PF-764: peptide having multiple activities (GYFEPGKRD; Peptide with targeting and/or antimicrobial activity) | G B | – | – | – | Target(s) (microorganisms bound by the targeting peptide) [1]: S. epidermidis and M. luteus and C. albicans and MRSA and S. pneumoniae and E. faecalis and C. jeikeium; Organism, effect (morphology, biofilm and growth disruption) (S. pneumoniae): S. pneumoniae (H); Organism, effect (morphology, biofilm and growth disruption) (MRSA): MRSA (D)
